Where two headings read alike, the source gives them in different places.
Tests used:
BRIN-BD11 cells [1] = format: cell-based, rat; conditions: for Insulin secretion (ng/10^6 cells/20 min), Control: addition alone without peptide: verapamil 50 μM or KCl 30 mM; for Insulin-releasing action in the presence of verapamil (in words): 50 μM verapamil, calcium channel blocker; for Insulin-releasing action in cells depolarised with KCl (in words): 30 mM KCl; for Insulin secretion (ng/10^6 cells/20 min): 8 observations
Protocol: (§1) Culture of insulin-secreting cells: Clonal rat insulin-secreting BRIN-BD11 cells were cultured in RPMI-1640 tissue culture medium containing 10% (v/v) fetal calf serum, 1% (v/v) antibiotics (100 U/ml penicillin, 0.1 mg/ml streptomycin) and 11.1 mM glucose. The production and characterisation of BRIN-BD11 cells are described elsewhere. Cells were maintained in sterile tissue culture flasks (Corning, Glass Works, UK) at 37° C. in an atmosphere of 5% CO2 and 95% air using LEEC incubator (Laboratory Technical Engineering, Nottingham, UK). In three experimental series using purified peptides from Agalychnis calcarifer, Bombina variegata and Rana saharica cells were cultured overnight with 25 μM forskolin, 10 nM PMA or 0.1 μg/ml pertussis toxin prior to acute tests.
Acute insulin release studies: Insulin release from BRIN-BD11 cells was determined using cell monolayers [McClenaghan N H, Barnett C R, Ah-Sing E, Abdel-Wahab Y H, O'Harte F P, Yoon T W, Swanston-Flatt S K and Flatt P R 1996 Characterization of a novel glucose-responsive insulin-secreting cell line, BRIN-BD11, produced by electrofusion. Diabetes 45 1132-1140]. The cells were harvested with the aid of trypsin/EDTA (Gibco), seeded into 24-multiwell plates (Nunc, Rosklide, Denmark) at a density of […] per well, and allowed to attach overnight. Prior to acute test, cells were preincubated for 40 min at 37° C. in a 1.0 ml Krebs Ringer bicarbonate buffer (115 mM NaCl, 4.7 mM KCl, 1.28 MM CaCl2, 1.2 MM KH2PO4, 1.2 mM MgSO4, 10 mM NaHCO3, 5 g/l bovine serum albumin, pH 7.4) supplemented with 1.1 mM glucose. Test incubations were performed for 20 min at 37° C. using the same buffer supplemented with 5.6 mM glucose in the absence (control) and presence of various venom fractions, peaks (equivalent to approx. 25 μl dried HPLC fraction) or test agents as indicated in the Figures. Cell viability after 20 min test incubations was assessed by modified neutral red assay [Hunt S M, Chrzanowska C, Barnnett C R, Brand H N and Fawell J K 1987 A comparison of in vitro cytotoxicity assays and their application to water samples. Alternatives to Laboratory Animals 15 20-29]. After incubation, aliquots of buffer were removed and stored at −20° C. for insulin radiomnimmunoassay [Flatt P R. and Bailey C J 1981 Abnormal plasma glucose and insulin responses in heterozygous lean (ob/+) mice. Diabetologia 20 573-577].

BRIN-BD11 cells [2] = assay: Acute insulin release from BRIN-BD11 cells cultured overnight with forskolin, PMA or pertussis toxin; format: cell-based, rat; conditions: acute test at 5.6 mM glucose; for Stimulatory effect on insulin secretion in cells cultured overnight with PMA: 10 nM PMA overnight (protein kinase C pathway); for Stimulatory effect on insulin secretion in cells cultured overnight with pertussis toxin: 0.1 μg/ml pertussis toxin overnight (G-protein pathway); for Stimulatory effect on insulin secretion in cells cultured overnight with forskolin: 25 μM forskolin overnight (desensitised cyclic AMP-protein kinase A pathway)
Protocol: FIG. 8 illustrates the dependence of the stimulatory effects of 1653.2 Da purified peptide (peak 1.10) from Agalychnis calcarifer on intracellular pathways mediated by protein kinase A (forskolin), protein kinase C (PMA) or pertussis toxin-sensitive G-proteins. Legend: Acute effects of the 13 amino acid 1653.2 Da purified peptide (peak 1.10) from Agalychnis calcarifer on forskolin and PMA on insulin secretion from BRIN-BD11 cells cultured overnight in the absence (control) and presence of 25 μM forskolin, 10 nM PMA or 0.1 μg/ml pertussis toxin. Acute incubations were performed at 5.6 mM glucose. Values are the mean ±SEM for 8 separate observations. ***P<0.001 compared with 5.6 mM glucose alone under same culture conditions. ^ΔΔΔp<0.001 compared with respective test reagent following control culture.
FIG. 9 illustrates the dependence of the stimulatory effects of 1641.7 Da, 1662.6 Da, 1619.8 Da and 1650.5 Da purified peptides (peaks 21, 22, 23 and 24) from Bombina variegata on intracellular pathways mediated by protein kinase A (forskolin), protein kinase C (PMA) or pertussis toxin-sensitive G-proteins. Legend: Acute effects of 1641.7, 1662.6, 1619.8 and 1650.5 Da purified peptides (peaks 21, 22, 23 and 24) from Bombina variegata on forskolin and PMA on insulin secretion from BRIN-BD11 cells cultured overnight in the absence (control) and presence of 25 μM forskolin, 10 nM PMA or 0.1 μg/ml pertussis toxin. Acute incubations were performed at 5.6 mM glucose. Values are the mean ±SEM for 8 separate observations. **P<0.001 compared with 5.6 mM glucose alone under same culture conditions. ^ΔP<0.001 compared with respective test reagent following control culture.
FIG. 10 illustrates the dependence of the stimulatory effects of 4920.4 Da and 4801.2 Da purified peptides (peaks 5.1 and 5.4) from Rana saharica on intracellular pathways mediated by protein kinase A (forskolin), protein kinase C (PMA) or pertussis toxin-sensitive G-proteins. Legend: Acute effects of 4920.4 and 4801.2 Da purified peptides (peaks 5.1 and 5.4) from Rana saharica on forskolin and PMA on insulin secretion from BRIN-BD11 cells cultured overnight in the absence (control) and presence of 25 μM forskolin, 10 nM PMA or […] pertussis toxin. Acute incubations were performed at 5.6 mM glucose. Values are the mean ±SEM for 8 separate observations. ***P<0.001 compared with 5.6 mM glucose alone under same culture conditions. ^ΔΔP<0.001 compared with respective test reagent following control culture.
as §1
Acute insulin release studies: Insulin release from BRIN-BD11 cells was determined using cell monolayers [McClenaghan N H, Barnett C R, Ah-Sing E, Abdel-Wahab Y H, O'Harte F P, Yoon T W, Swanston-Flatt S K and Flatt P R 1996 Characterization of a novel glucose-responsive insulin-secreting cell line, BRIN-BD11, produced by electrofusion. Diabetes 45 1132-1140]. The cells were harvested with the aid of trypsin/EDTA (Gibco), seeded into 24-multiwell plates (Nunc, Rosklide, Denmark) at a density of […] per well, and allowed to attach overnight. […]

[3] = peptides from Phyllomedusa trinitatis, 5.6 mM glucose, no-peptide control 1.47 ± 0.04
[4] = peptides from Rana saharica, 5.6 mM glucose, mean ± SEM, 3 observations, no-peptide control 1.87 ± 0.06
[5] = peptides from Agalychnis litodryas, 5.6 mM glucose, mean ± SEM, 3 observations, no-peptide control 1.95 ± 0.16
[6] = Table 10, no addition, 5.6 mM glucose, control 1.69 ± 0.17
[7] = Table 10, peptide plus KCl (30 mM), 5.6 mM glucose
[8] = Table 10, peptide plus verapamil (50 μM), 5.6 mM glucose

[Cl-].[K+] [KCl, reference compound]
Insulin secretion (ng/10^6 cells/20 min), Control (BRIN-BD11 cells [1]; Table 8, 5.6 mM glucose): 5.32 ± 0.38 ΔΔΔ ng/10^6 cells/20 min | Insulin secretion (ng/10^6 cells/20 min), Control (BRIN-BD11 cells [1]; Table 9, 5.6 mM glucose): 5.33 ± 0.38ΔΔΔ ng/10^6 cells/20 min | Insulin secretion (ng/10^6 cells/20 min), Control (BRIN-BD11 cells [1]; Table 10, 5.6 mM glucose): 5.33 ng/10^6 cells/20 min

CCCCCCCCCCCCCC(=O)O[C@@H]1[C@@H](C)[C@@]2(O)[C@@H](C=C(CO)C[C@]3(O)C(=O)C(C)=C[C@@H]23)[C@@H]2C(C)(C)[C@]12OC(C)=O [PMA, reference compound]
Stimulatory effect on insulin secretion in cells cultured overnight with PMA (BRIN-BD11 cells [2]): abolition

ALSILRGLEKLAKMGIALTNCKATKKC [Peptide 3.8, 2873.5 Da peptide from Rana palustris, 46% ID to Brevinin-1]
Insulin release (ng/10^6 cells/20 mins) (BRIN-BD11 cells [1]; peptides from Rana palustris, 5.6 mM glucose, no-peptide control 1.467 ± 0.04): 2.48 ± 0.44 ng/10^6 cells/20 mins

ALWKDILKNVGKAAGKAVLNTVTDMVNQ [Peptide 2.10, peptide from Phyllomedusa trinitatis, 100% ID to Dermaseptin B IV precursor]
Insulin release (ng/10^6 cells/20 mins) (BRIN-BD11 cells [1]; [3]): 2.356 ± 0.34 ng/10^6 cells/20 mins

AVITGACERDVQCGGGTCCAVSLI . . . [Peptide 4.23]
Insulin release (ng/10^6 cells/20 mins) (BRIN-BD11 cells [1]; [4]): 4.25 ± 0.17 ng/10^6 cells/20 mins

AVWKDFLKNIGKAAGKAVLNSVTDMVNE [Peptide 2.9, 3020.0 Da peptide from Agalychnis litodryas, 79% ID to Dermaseptin B IV precursor]
Insulin release (ng/10^6 cells/20 mins) (BRIN-BD11 cells [1]; [5]): 7.46 ± 0.08 ng/10^6 cells/20 mins

FLPIIAGVAAKVFPKIFCAISKKC [Peptide 4.1, peptide from Rana pipiens identical to pipinin-1]
Insulin release (ng/10^6 cells/20 mins) (BRIN-BD11 cells [1]; peptides from Rana pipiens, 5.6 mM glucose, mean ± SEM, 3 observations, no-peptide control 2.76 ± 0.13): 4.15 ± 0.01 ng/10^6 cells/20 mins

FLPLLAGLAANFLPKIFCKITRKC [Peptide 8.3, peptide from Rana saharica matching Brevinin-1E]
Insulin release (ng/10^6 cells/20 mins) (BRIN-BD11 cells [1]; [4]): 3.53 ± 0.06 ng/10^6 cells/20 mins

GIFSKFGRKKIKNLLISGLKNVGKEVGMDVVRTGIDIAGCKIKGEC [Peptide 5.1, peptide from Rana saharica, 98% ID to Esculentin-1]
Insulin-releasing action in the presence of verapamil (in words) (BRIN-BD11 cells [1]): not inhibited | Insulin-releasing action in cells depolarised with KCl (in words) (BRIN-BD11 cells [1]): clearly evident | Insulin secretion (ng/10^6 cells/20 min) (BRIN-BD11 cells [1]; [6]): 2.96 ± 0.32 ng/10^6 cells/20 min | Insulin secretion (ng/10^6 cells/20 min) (BRIN-BD11 cells [1]; [7]): 10.11 ± 0.81ΔΔΔ*** ng/10^6 cells/20 min | Insulin secretion (ng/10^6 cells/20 min) (BRIN-BD11 cells [1]; [8]): 2.88 ± 0.28 ng/10^6 cells/20 min | Insulin release (ng/10^6 cells/20 mins) (BRIN-BD11 cells [1]; [4]): 3.32 ± 0.22 ng/10^6 cells/20 mins | Stimulatory effect on insulin secretion in cells cultured overnight with PMA (BRIN-BD11 cells [2]): abolished | Stimulatory effect on insulin secretion in cells cultured overnight with pertussis toxin (BRIN-BD11 cells [2]): abolished | Stimulatory effect on insulin secretion in cells cultured overnight with forskolin (BRIN-BD11 cells [2]): abolished

GIFSKLAGKKLKNLLISGLKNVGKEVGMDVVRTGIDIAGCKIKGEC [Peptide 5.4, peptide from Rana saharica matching Esculentin-1B]
Insulin-releasing action in the presence of verapamil (in words) (BRIN-BD11 cells [1]): not inhibited | Insulin-releasing action in cells depolarised with KCl (in words) (BRIN-BD11 cells [1]): clearly evident | Insulin secretion (ng/10^6 cells/20 min) (BRIN-BD11 cells [1]; [6]): 2.89 ± 0.19 ng/10^6 cells/20 min | Insulin secretion (ng/10^6 cells/20 min) (BRIN-BD11 cells [1]; [7]): 11.84 ± 0.98ΔΔΔ*** ng/10^6 cells/20 min | Insulin secretion (ng/10^6 cells/20 min) (BRIN-BD11 cells [1]; [8]): 2.79 ± 0.10 ng/10^6 cells/20 min | Insulin release (ng/10^6 cells/20 mins) (BRIN-BD11 cells [1]; [4]): 3.30 ± 0.22 ng/10^6 cells/20 mins | Stimulatory effect on insulin secretion in cells cultured overnight with PMA (BRIN-BD11 cells [2]): abolished | Stimulatory effect on insulin secretion in cells cultured overnight with pertussis toxin (BRIN-BD11 cells [2]): abolished | Stimulatory effect on insulin secretion in cells cultured overnight with forskolin (BRIN-BD11 cells [2]): abolished

GILLDKLKNFAKTAGKGVLQSLLNTASCKLSGQC [Peptide 6.5, peptide from Rana saharica matching Brevinin-2EC]
Insulin release (ng/10^6 cells/20 mins) (BRIN-BD11 cells [1]; [4]): 5.93 ± 0.47 ng/10^6 cells/20 mins

GILSTIKDFAIKAGKGAAKGLLEMASCKLSGQC [Peptide 5.6, 3309.2 Da peptide from Rana saharica, 67% ID to Brevinin-2EB]
Insulin release (ng/10^6 cells/20 mins) (BRIN-BD11 cells [1]; [4]): 2.86 ± 0.37 ng/10^6 cells/20 mins

GKPFYPPPIYPEDM [Peptide 24, peptide from Bombina variegata, 57% ID to tryptophyllin]
Insulin release (ng/10^6 cells/20 mins) (BRIN-BD11 cells [1]): 4.30 ± 0.20 ng/10^6 cells/20 mins | Insulin-releasing action in the presence of verapamil (in words) (BRIN-BD11 cells [1]): not affected | Insulin-releasing action in cells depolarised with KCl (in words) (BRIN-BD11 cells [1]): clearly evident | Insulin secretion (ng/10^6 cells/20 min) (BRIN-BD11 cells [1]; Table 9, no addition, 5.6 mM glucose, control 1.69 ± 0.17): 3.31 ± 0.20 ng/10^6 cells/20 min | Insulin secretion (ng/10^6 cells/20 min) (BRIN-BD11 cells [1]; Table 9, peptide plus KCl (30 mM), 5.6 mM glucose): 15.35 ± 0.41ΔΔΔ*** ng/10^6 cells/20 min | Insulin secretion (ng/10^6 cells/20 min) (BRIN-BD11 cells [1]; Table 9, peptide plus verapamil (50 μM), 5.6 mM glucose): 3.08 ± 0.29 ng/10^6 cells/20 min | Stimulatory effect on insulin secretion in cells cultured overnight with PMA (BRIN-BD11 cells [2]): did not affect | Stimulatory effect on insulin secretion in cells cultured overnight with pertussis toxin (BRIN-BD11 cells [2]): did not affect | Stimulatory effect on insulin secretion in cells cultured overnight with forskolin (BRIN-BD11 cells [2]): abolished

IYNAICPCKHCNKCKPGLLAN [Peptide 25, 2300.0 Da peptide from Bombina variegata, no database match]
Insulin release (ng/10^6 cells/20 mins) (BRIN-BD11 cells [1]): 2.39 ± 0.30 ng/10^6 cells/20 mins

KGAAKGLLEVASCKLSKSC [Peptide 4.22, 1892.6 Da peptide from Rana saharica, 68.4% ID to Rugosin A]
Insulin release (ng/10^6 cells/20 mins) (BRIN-BD11 cells [1]; [4]): 3.47 ± 0.40 ng/10^6 cells/20 mins

MLADVFEKIMGD . . . [Peptide 1.7]
Insulin release (ng/10^6 cells/20 mins) (BRIN-BD11 cells [1]; [5]): 4.22 ± 0.48 ng/10^6 cells/20 mins

XXPLAPFFQAVFK . . . [Peptide 1.8]
Insulin release (ng/10^6 cells/20 mins) (BRIN-BD11 cells [1]; [3]): 2.48 ± 0.37 ng/10^6 cells/20 mins
